Tests used:
Assay type in all cases: cell-based
[1] = test system: human iPS cells (201B7 strain); test: Immunostaining of Pitx1, Lhx3 and E-cadherin in cell aggregates on day 29 (Example 3); conditions: 1 μM from day 0
Experimental: In Example 3, according to step shown in FIG. 3A, a cell population including cells that constitute pituitary tissue was produced. Specifically, human iPS cells (201B7 strain, obtained from Kyoto University) were cultured under feeder-free conditions according to the method described in Scientific Reports, 4, 3594 (2014). As the feeder-free medium, StemFit medium was used and, as the feeder-free scaffold, Laminin 511-E8 was used.
The aforementioned subconfluent human iPS cells were subjected to cell dispersion treatment using TrypLE Select, and further dispersed to single cells by pipetting operation. Thereafter, the aforementioned […] dispersed into single cells were suspended in 100 μl of a serum-free medium at 9000 cells per well of a non-cell-adhesive 96-well culture plate, and suspension cultured under the conditions of 37° C., 5% CO2. […]
The aforementioned cell aggregates on the 29th day after the start of differentiation induction were each fixed with 4% para-formaldehyde, and cryosections were prepared. […] After the primary antibody reaction, detection was performed using a secondary antibody (manufactured by Life Technologies) fluorescence-labeled with Alexa488, 555, and 647. […]

[2] = test system: cell mass derived from human iPS cell line 201B7; test: ACTH concentration in culture medium of cell masses by ELISA (Example 4); conditions: for ACTH concentration in the medium compared with JNK inhibitor non-addition conditions: 1 μM from day 0; for ACTH concentration in the medium vs non-addition condition: 3 μM
Experimental: In Example 4, according to step shown in FIG. 4A, a cell population including cells that constitute pituitary tissue was produced. Specifically, the culture supernatant of a cell mass derived from human iPS cell line 201B7 prepared by the method described in Example 3 was collected over time, and the amount of ACTH secreted per cell mass was measured. As a specific measurement method, cell masses containing pituitary tissue were prepared under four conditions: from day 0 to day 30 of differentiation induction, conditions in which the JNK inhibitor JNK—IN-8 was added at 1 μM, 3 μM, or 10 μM, and no addition control. […] Thereafter, the cell masses prepared by adding 1 μM or 3 μM of JNK—IN-8 and the non-addition control were suspension cultured in a 10 cm dish with 20 ml of medium, and half of the medium was replaced every 3 to 4 days. The culture supernatant was collected before replacement of a half-volume of the medium on days 61, 103, 152, and 201 of differentiation induction, and frozen at −150° C. When all samples were collected, the ACTH concentration in the recovered medium was measured by the ELISA method used in clinical testing (testing outsourced to SRL, Ltd.). Based on the obtained ACTH concentration data (pg/mL), the total number of cell masses at the time of sampling and the total amount of culture medium were corrected to the ACTH concentration under the conditions where 20 cell masses were cultured in 20 ml of medium, and shown in a graph. A similar experiment was performed twice.
As a result, the ACTH concentration in the medium was about 5 times as high on day 61 of differentiation induction, about 2 times as high on days 103 and 152 of differentiation induction, and about 1.3 times as high on day 201 of differentiation induction under the conditions in which 1 μM JNK—IN-8 was added from day 0 of differentiation induction, compared with the JNK inhibitor non-addition conditions. Under the conditions in which 3 μM JNK—IN-8 was added, the ACTH concentration in the medium was higher on days 61 and 103 of differentiation induction than that in the non-addition condition, but lower on days 152 and 201 of differentiation induction than that in the non-addition condition. From the above results, it was shown that the addition of a JNK inhibitor improves the ACTH secretory capacity per cell mass in differentiation induction of pituitary tissue from pluripotent stem cells, and that the concentration of the JNK inhibitor to be added is preferably not more than 3 μM (FIG. 4B).

[3] = test system: human iPS cells (201B7 strain); test: Immunostaining of ACTH and E-cadherin in cell aggregates on day 103 (Example 7)
Experimental: According to the steps shown in FIG. 10A, suspension culturing was performed using human iPS cells (201B7 strain) in the same manner as in Example 4, and continued until day 103. Using the obtained cell aggregates, cryosections were prepared in the same manner as in Example 3. The obtained sections were subjected to immunostaining using anti-ACTH antibody (manufactured by Fitzgerald Industries) and anti-E-cadherin antibody (manufactured by Takara Bio Inc.), and the nucleus was stained with DAPI. […] The scale bar at the bottom right of FIG. 10B indicates 200 μm.

With `Cc1cc(NC(=O)c2cccc(NC(=O)/C=C/CN(C)C)c2)ccc1Nc1nccc(-c2cccnc2)n1` [JNK—IN-8, (E)-3-(4-(dimethylamino)but-2-enamido)-N-(3-methyl-4-((4-(pyridin-3-yl)pyrimidin-2-yl)amino)phenyl)benzamide] the “number of cells positive for Pitx1 and Lhx3 vs non-addition control” value [1] was “higher”, the “proportion of the surface of the cell mass covered with E-Cadherin-positive epithelial tissue vs non-addition control” value [1] was “higher” and the “ACTH concentration in the medium compared with JNK inhibitor non-addition conditions” value ([2]; day 61 of differentiation induction) was “about 5 times”. The “ACTH concentration in the medium compared with JNK inhibitor non-addition conditions” value ([2]; day 201 of differentiation induction) was “about 1.3 times”, the “ACTH concentration in the medium compared with JNK inhibitor non-addition conditions” value ([2]; days 103 and 152 of differentiation induction) was “about 2 times” and the “ACTH concentration in the medium vs non-addition condition” value ([2]; days 61 and 103 of differentiation induction) was “higher”. For the same compound, the “ACTH concentration in the medium vs non-addition condition” value ([2]; days 152 and 201 of differentiation induction) was “lower”, the “state of cell mass” value ([2]; 10 μM added from day 0 to day 30 of differentiation induction) was “collapse of cell mass” and the “proportion of ACTH-positive cells in the entire cell aggregate” value ([3]; JNKi(+), mean±SEM, n=8-12) was 42.2±4.4 % of total cells. The “proportion of E-cadherin-positive cells in the layer covering the surface of cell aggregates vs non-addition control” value ([3]; JNK—IN-8 added) was “higher”.

Source: patent publication US20240392241A1, “METHOD FOR PRODUCING CELL MASS INCLUDING PITUITARY TISSUE AND CELL MASS” (SUMITOMO CHEMICAL COMPANY, LIMITED, priority 2021, published 2024)
